Experimental data taken from article PMC6891762, “Novel Isoxazolidine and γ-Lactam Analogues of Homonucleosides” (Molecules, 2019).
In brackets after ≈: the same amount, converted by molar mass.

How the values were obtained:
[1] = tested on: herpes simplex virus; settings: ref [19],[20],[21]; cited from earlier work
[2] = tested on: vaccinia virus; settings: ref [19],[20],[21]; cited from earlier work
[3] = tested on: reverse transcriptase activity of (AMV) and human immunodeficiency virus (HIV); settings: ref [34],[35],[36],[37],[38]; cited from earlier work
[4] = design: method as in PMID 12904074, PMID 20394405, PMID 15743182, PMID 17580846, PMID 17967914; settings: ref [34],[35],[36],[37],[38]; read-out: 50% cytotoxic concentration (CC50); cited from earlier work
[5] = tested on: influenza type virus AH1N1; design: method as in PMID 23225323; settings: ref [22]; cited from earlier work
[6] = tested on: hTERT RPE-1 normal retina (non-cancerous) cells; test: Cytostatic activity, normal retina cells; type: cell-based; settings: concentration causing 50% decrease in cell proliferation
Experimental: (§1) The 50% cytostatic inhibitory concentration (IC50) causing a 50% decrease in cell proliferation was determined for all isolated isoxazolidines 14 and γ-lactams 15 toward nine cancerous cell lines (Capan-1 (pancreatic adenocarcinoma), Hap1 (chronic myeloid leukemia), HCT-116 (colorectal carcinoma), NCI-H460 (lung carcinoma), DND-41 (acute lymphoblastic leukemia), HL-60 (acute myeloid leukemia), K-562 (chronic myeloid leukemia), MM.1S (multiple myeloma) and Z-138 (non-Hodgkin lymphoma)) and normal retina (non-cancerous) cells (hTERT RPE-1). Docetaxel, etoposide and stauroporine were used as the reference compounds.
(§2) All assays were performed in 96-well microtiter plates. To each well was added (5−7.5) × 10^4 tumor cells and a given amount of the test compound. The cells were allowed to proliferate at 37 °C in a humidified, CO2-controlled atmosphere. At the end of the incubation period, the cells were counted in a Coulter counter. The IC50 (50% inhibitory concentration) was defined as the concentration of the compound that inhibited cell proliferation by 50%.

[7] = tested on: Capan-1 (pancreatic adenocarcinoma) cells; test: Cytostatic activity, Capan-1; type: cell-based
Experimental: as §1, with “RPE-1).” for “RPE-1). Docetaxel, etoposide and stauroporine were used as the reference compounds.”
as §2, with “counter.” for “counter. The IC50 (50% inhibitory concentration) was defined as the concentration of the compound that inhibited cell proliferation by 50%.”

[8] = tested on: Hap1 (chronic myeloid leukemia) cells; test: Cytostatic activity, Hap1; type: cell-based; settings: concentration causing 50% decrease in cell proliferation
Experimental: as §1, §2

[9] = tested on: HCT-116 (colorectal carcinoma) cells; test: Cytostatic activity, HCT-116; type: cell-based; settings: concentration causing 50% decrease in cell proliferation
Experimental: as §1, §2

[10] = tested on: NCI-H460 (lung carcinoma) cells; test: Cytostatic activity, NCI-H460; type: cell-based; settings: concentration causing 50% decrease in cell proliferation
Experimental: as §1, §2

[11] = tested on: viral uracil-DNA glycosylase (UDG); design: method as in PMID 11084051; settings: ref [23]; cited from earlier work
[12] = tested on: human enzymes (UDG); design: method as in PMID 11084051; settings: ref [23]; cited from earlier work
[13] = Homo sapiens, CAPAN-1, concentration causing 50% decrease in cell proliferation
[14] = concentration causing 50% decrease in cell proliferation

Row | Compound | IC50 [6] | IC50 [7, 14] | IC50 [8] | IC50 [9] | IC50 [10] | further results
1 | Nc1ncnc2c1ncn2C[C@H]1C[C@H](O)[C@@H](CO)O1 [Compound 1] | – | – | – | – | – | minimum inhibitory concentration (MIC) [1]: 5 to 20 µg/mL; activity against vaccinia virus [2]: active
2 | Cc1cn([C@H]2C[C@H](N=[N+]=[N-])[C@@H](CO)O2)c(=O)[nH]c1=O [AZT, azidothymidine] | – | – | – | – | – | level of inhibition of reverse transcriptase activity [3]: 10 nM; CC50 [4]: 12.1 µM
3 | C[C@H](Cn1cnc2c(N)ncnc21)OCP(=O)(O)O [tenofovir] | – | – | – | – | – | level of inhibition of reverse transcriptase activity [3]: 1 nM
4 | O=c1[nH]cnc2c1ncn2C[C@H]1C[C@H](O)[C@@H](CO)O1 [Compound 3] | – | – | – | – | – | IC50 [5]: 25.2 µg/mL (≈ 94.6 µM)
5 | COc1cc([C@@H]2c3cc4c(cc3[C@@H](O[C@@H]3O[C@@H]5CO[C@@H](C)O[C@H]5[C@H](O)[C@H]3O)[C@H]3COC(=O)[C@H]23)OCO4)cc(OC)c1O [Etoposide, reference compound] | – | – | – | – | – | IC50 ([6]; hTERT-RPE1): 0.23 µM; IC50 [7, 13]: 0.15 µM; IC50 ([8]; Homo sapiens, HAP1): 0.04 µM; IC50 ([9]; Homo sapiens, HCT-116): 1.03 µM; IC50 ([10]; Homo sapiens, NCI-H460): 1.35 µM
6 | O=c1ccn(C[C@H]2C[C@H](O)[C@@H](CO)O2)c(=O)[nH]1 [Compound 4] | – | – | – | – | – | inhibition of viral uracil-DNA glycosylase (UDG) [11]: selective inhibitor; effect on the human enzymes [12]: only small effect
7 | CN1C(=O)[C@@H](O)C[C@@H]1Cn1cnc2c(N)ncnc21 (relative stereo) [trans-15i, trans-5-[(6-Amino-9H-purin-9-yl)methyl]-3-hydroxy-1-methylpyrrolidin-2-one] | – | – | – | – | – | IC50 ([6]; hTERT-RPE1): > 100 µM; IC50 [7, 13]: 53.7 µM; IC50 ([8]; Homo sapiens, HAP1): 47.8 µM; IC50 ([9]; Homo sapiens, HCT-116): 65.7 µM; IC50 ([10]; Homo sapiens, NCI-H460): 54.7 µM
8 | Nc1nc2c(ncn2C[C@H]2C[C@H](O)[C@@H](CO)O2)c(=O)[nH]1 [Compound 2] | – | – | – | – | – | minimum inhibitory concentration (MIC) [1]: 5 to 20 µg/mL; activity against vaccinia virus [2]: active
9 | COC(=O)[C@@H]1C[C@H](Cn2cc(Cl)c(=O)[nH]c2=O)N(C)O1 (relative stereo) [cis-14e, Methyl cis-3-{[5-chloro-2,4-dioxo-3,4–dihydropyrimidin-1(2H)-yl]metyl}-2-methylisoxazolidine-5-carboxylate] | > 100 µM | 51.2 µM | 44.2 µM | 26.7 µM | 48.8 µM | –
10 | COC(=O)[C@@H]1C[C@H](Cn2cc(Br)c(=O)[nH]c2=O)N(C)O1 (relative stereo) [cis-14d, Methyl cis-3-{[5-bromo-2,4-dioxo-3,4–dihydropyrimidin-1(2H)-yl]metyl}-2-methylisoxazolidine-5-carboxylate] | > 100 µM | 95 µM | > 100 µM | 86.4 µM | 62.3 µM | –
11 | COC(=O)[C@H]1C[C@H](Cn2cc(Br)c(=O)[nH]c2=O)N(C)O1 (relative stereo) [trans-14d, Methyl trans-3-{[5-bromo-2,4-dioxo-3,4–dihydropyrimidin-1(2H)-yl]metyl}-2-methylisoxazolidine-5-carboxylate] | > 100 µM | 67.8 µM | > 100 µM | > 100 µM | 76.1 µM | –
12 | COC(=O)[C@@H]1C[C@H](Cn2cc(F)c(=O)[nH]c2=O)N(C)O1 (relative stereo) [cis-14c, Methyl cis-3-{[5-fluoro-2,4-dioxo-3,4–dihydropyrimidin-1(2H)-yl]metyl}-2-methylisoxazolidine-5-carboxylate] | > 100 µM | > 100 µM | > 100 µM | > 100 µM | > 100 µM | –
